What is called IC50 is the point on the concentration scale where inhibition reaches its midpoint. Lower therefore signals higher potency.

The target of this assay is T1, Tumor necrosis factor receptor superfamily member 1A (Homo sapiens, UniProt P19438).
T1 sequence (P19438 whole entry): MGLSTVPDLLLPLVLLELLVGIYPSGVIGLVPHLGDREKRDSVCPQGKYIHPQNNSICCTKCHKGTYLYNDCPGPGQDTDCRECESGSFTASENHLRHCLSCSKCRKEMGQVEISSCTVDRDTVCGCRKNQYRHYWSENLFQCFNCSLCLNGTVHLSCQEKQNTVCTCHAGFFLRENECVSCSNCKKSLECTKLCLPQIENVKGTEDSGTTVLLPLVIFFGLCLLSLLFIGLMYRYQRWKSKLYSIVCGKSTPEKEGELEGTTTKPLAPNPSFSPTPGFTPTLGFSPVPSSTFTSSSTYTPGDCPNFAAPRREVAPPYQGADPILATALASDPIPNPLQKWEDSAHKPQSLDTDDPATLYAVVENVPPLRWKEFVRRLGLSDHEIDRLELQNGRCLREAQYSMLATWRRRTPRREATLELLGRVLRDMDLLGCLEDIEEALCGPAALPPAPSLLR
Kind of assay: ChEBML_224214. An excerpt: Inhibition of TNF-alpha-induced VCAM-1 expression
In the case of `COc1cc(OC)c(/C=C/C(=O)c2cc(OC)c(OC)c(OC)c2)cc1Br` [(E)-3-(5-Bromo-2,4-dimethoxy-phenyl)-1-(3,4,5-trimethoxy-phenyl)-propenone], the IC50 worked out at 2 µM. `COc1ccc(Br)cc1/C=C/C(=O)c1cc(OC)c(OC)c(OC)c1` [(E)-3-(5-Bromo-2-methoxy-phenyl)-1-(3,4,5-trimethoxy-phenyl)-propenone] displayed an IC50 of 1 µM. `COc1ccc(-c2cc(C)cs2)cc1/C=C/C(=O)c1cc(OC)c(OC)c(OC)c1` [(E)-3-[2-Methoxy-5-(4-methyl-thiophen-2-yl)-phenyl]-1-(3,4,5-trimethoxy-phenyl)-propenone] showed an IC50 of 2 µM.

Consider `COc1ccc(-c2ccc(C)s2)cc1/C=C/C(=O)c1cc(OC)c(OC)c(OC)c1` [(E)-3-[2-Methoxy-5-(5-methyl-thiophen-2-yl)-phenyl]-1-(3,4,5-trimethoxy-phenyl)-propenone], for which the midpoint of inhibition, the IC50, lay at 2 µM.

On to `COc1cc(C(=O)C=Cc2cc(OC)c(OC)c(-c3ccc(C(C)=O)s3)c2)cc(OC)c1OC` [(E)-3-[3-(5-Acetyl-thiophen-2-yl)-4,5-dimethoxy-phenyl]-1-(3,4,5-trimethoxy-phenyl)-propenone], for which the IC50 worked out at 3 µM. In the case of `O=C(/C=C/c1ccccc1)c1ccccc1` [Chalcone, 13], half-maximal inhibition (IC50) required 23 µM.

`COc1cc(OCC(=O)O)c(/C=C/C(=O)c2ccccc2)cc1-c1cc2ccccc2s1` [[4-Benzo[b]thiophen-2-yl-5-methoxy-2-((E)-3-oxo-3-phenyl-propenyl)-phenoxy]-acetic acid]: the IC50 turned out to be 1 µM. `COc1ccc(-c2cccs2)cc1/C=C/C(=O)c1cc(OC)c(OCC(=O)O)c(OC)c1` [{2,6-Dimethoxy-4-[(E)-3-(2-methoxy-5-thiophen-2-yl-phenyl)-acryloyl]-phenoxy}-acetic acid]: inhibition was half-maximal at 1 µM (IC50). To `COc1cc(C(=O)/C=C/c2cc(OC)c(OC)c(-c3cccs3)c2)cc(OC)c1OCC(=O)O` [{4-[(E)-3-(3,4-Dimethoxy-5-thiophen-2-yl-phenyl)-acryloyl]-2,6-dimethoxy-phenoxy}-acetic acid] belongs 1 µM; to `COc1cc(OC)c(-c2cc3ccccc3s2)cc1/C=C/C(=O)c1ccc(SCC(=O)O)cc1` [{4-[(E)-3-(5-Benzo[b]thiophen-2-yl-2,4-dimethoxy-phenyl)-acryloyl]-phenylsulfanyl}-acetic acid], 1 µM.
